# ChEMBL document CHEMBL1795228, “Air to lung partition coefficients for volatile organic compounds and blood to lung partition coefficients for volatile organic compounds and drugs” (Eur J Med Chem, 2008)
# Tests used:
# [1] = In-vivo blood to lung partition coefficients of the compound, logP(lung) in rat; type: ADME
# [2] = In-vivo serum to lung partition coefficients of the compound, logP(lung) in rat; type: ADME; conditions: octanol/water
# [3] = In-vitro air to lung partition coefficients of the compound, logK(lung) (human/rat); conditions: octanol/water
# [4] = In-vitro blood to lung partition coefficients of the compound, logP(lung) (human/rat)
# [5] = In-vitro air to blood partition coefficients of the compound, logK(blood) (human/rat); conditions: octanol/water
# [6] = In-vivo blood/plasma to lung partition coefficients of the compound, logP(lung) in rat; type: ADME, cell-free; conditions: octanol/water
SMILES,logP(lung) [1],logK(lung) [3],logP(lung) [4],logK(blood) [5],other results
COc1ccc(CCCn2ncc3c2nc(N)n2nc(-c4ccco4)nc32)cc1,0.62,,,,
COC(=O)Nc1nc2cc(C(=O)N3CCN(c4ccccn4)CC3)ccc2[nH]1,,,,,logP(lung) [2]: -0.29
C=CC(=O)O [ACRYLIC ACID],0.14,,,,
CC[C@H]1OC(=O)[C@H](C)[C@@H](O[C@H]2C[C@@](C)(OC)[C@@H](O)[C@H](C)O2)[C@H](C)[C@@H](O[C@@H]2O[C@H](C)C[C@H](N(C)C)[C@H]2O)[C@](C)(O)C[C@@H](C)CN(C)[C@H](C)[C@@H](O)[C@]1(C)O [AZITHROMYCIN],,,,,logP(lung) [2]: 2.08
CN(C)CCCN1c2ccccc2Sc2ccc(Cl)cc21 [CHLORPROMAZINE],1.81,,,,
CN(C)CCCN1c2ccccc2CCc2ccc(Cl)cc21 [CLOMIPRAMINE],2.16,,,,
CCc1cc2c(s1)N(C)C(=O)CN=C2c1ccccc1Cl [CLOTIAZEPAM],1.04,,,,
CC[C@H]1OC(=O)[C@H](C)[C@@H](O[C@H]2C[C@@](C)(OC)[C@@H](O)[C@H](C)O2)[C@H](C)[C@@H](O[C@@H]2O[C@H](C)C[C@H](N(C)C)[C@H]2O)[C@](C)(O)C[C@@H](C)C(=O)[C@H](C)[C@@H](O)[C@]1(C)O [ERYTHROMYCIN],,,,,logP(lung) [2]: 1.62
O=C(CCCN1CCC(O)(c2ccc(Cl)cc2)CC1)c1ccc(F)cc1 [HALOPERIDOL],1.73,,,,
Oc1ccc(O)cc1 [HYDROQUINONE],-0.16,,,,
OCCOCCN1CCN(C(c2ccccc2)c2ccc(Cl)cc2)CC1 (centres undefined) [HYDROXYZINE],1.06,,,,
CC(C)CO [ISOBUTANOL],,2.6,-0.32,2.92,
FC(F)OC(Cl)C(F)(F)F (centres undefined) [ISOFLURANE],,0.2,0,0.2,
COC(F)(F)C(Cl)Cl [METHOXYFLURANE],,1.2,-0.08,1.28,
CO [METHYL ALCOHOL],,3.24,-0.17,3.41,
CC1CCCC1 [METHYLCYCLOPENTANE],,0.23,0.3,-0.07,
ClCCl [METHYLENE CHLORIDE],,0.76,-0.36,1.12,
COCCc1ccc(OCC(O)CNC(C)C)cc1 (centres undefined) [METOPROLOL],1.06,,,,

SMILES,logP(lung) [1],logK(lung) [3],logP(lung) [4],logK(blood) [5],other results
Cc1ncc2n1-c1ccc(Cl)cc1C(c1ccccc1F)=NC2 [MIDAZOLAM],,,,,logP(lung) [6]: 0.6
O=C1CN=C(c2ccccc2)c2cc([N+](=O)[O-])ccc2N1 [NITRAZEPAM],0.26,,,,
[N-]=[N+]=O [NITROUS OXIDE],,-0.37,0,-0.34,
Cc1ccccc1C [O-XYLENE],,1.94,0.52,1.42,
C1CO1 [OXIRANE],,1.79,-0.01,1.8,
C=CCOc1ccccc1OCC(O)CNC(C)C (centres undefined) [OXPRENOLOL],,,,,logP(lung) [6]: 1.27
O=O [OXYGEN],,-1.62,-0.04,-1.58,
CCCCC [PENTANE],,-0.3,-0.01,-0.29,
CC(=O)Nc1ccc(OCC(O)CNC(C)C)cc1 (centres undefined) [PRACTOLOL],0.48,,,,
C=CC [PROPENE],,-0.24,-0.03,-0.21,
FCOC(C(F)(F)F)C(F)(F)F [SEVOFLURANE],,0.11,0.31,-0.2,
FS(F)(F)(F)(F)F [SULFUR HEXAFLUORIDE],,-2.14,0.03,-2.17,
ClC(Cl)=C(Cl)Cl [TETRACHLOROETHYLENE],,1.86,0.67,1.19,
CC(Cl)(Cl)Cl [TRICHLOROETHANE],,0.67,0.04,0.63,
ClC=C(Cl)Cl [TRICHLOROETHYLENE],,1.15,0.01,1.14,
CN1CCN(CCCN2c3ccccc3Sc3ccc(C(F)(F)F)cc32)CC1 [TRIFLUOPERAZINE],1.33,,,,
OC(CCN1CCCCC1)(c1ccccc1)C1CCCCC1 (centres undefined) [TRIHEXYPHENIDYL],1.87,,,,
